The source of these data is patent US4868181A, “1,4-dihydropyridine derivatives with calcium agonist and alpha1 -antagonist activity” (E. I. Du Pont de Nemours and Company, priority 1987, dated 1989).

Experiment [1] deals with alpha1 -adrenoceptors. Briefly: [^3 H]-prazosin binding assay (affinity for alpha1-adrenoceptors). Conditions: rat brain membranes, 0.2 nM [^3 H]-prazosin, 60 minutes at 25°. Here is the method:
The [^3 H]-prazosin binding assay was carried out according to the method described by Timmermans, P. B. M. W. M., Schoop, A. M. C., and Van Zwieten, P. A.: Biochem Pharmacol., 31, 899-905, 1982 (1). The reaction mixture contained partially purified rat brain membranes (source of alpha1 -adrenoceptors), 0.2 nM [^3 H]-prazosin with or without potential displacer in Tris buffer. The mixture was incubated for 60 minutes at 25° and subsequently terminated by rapid filtration through glass fiber-filter. Receptor-bound [^3 H]-prazosin trapped in the filter was quantitated by scintillation counting. The inhibitory concentration (IC50) of potential displacer which gives 50% displacement of the total specifically bound [^3 H]-prazosin is presented as a measure of the affinity of such compound for the alpha1 -adrenoceptor.

The target in experiment [2] is T1, Ca^2 + channels (Rattus norvegicus, UniProt P22002).
T1 construct: rat cardiac microsomes (source of Ca^2 + channels); from tissue; host or cells: rat cardiac microsomes
T1 sequence (P22002 whole entry, other chains not shown): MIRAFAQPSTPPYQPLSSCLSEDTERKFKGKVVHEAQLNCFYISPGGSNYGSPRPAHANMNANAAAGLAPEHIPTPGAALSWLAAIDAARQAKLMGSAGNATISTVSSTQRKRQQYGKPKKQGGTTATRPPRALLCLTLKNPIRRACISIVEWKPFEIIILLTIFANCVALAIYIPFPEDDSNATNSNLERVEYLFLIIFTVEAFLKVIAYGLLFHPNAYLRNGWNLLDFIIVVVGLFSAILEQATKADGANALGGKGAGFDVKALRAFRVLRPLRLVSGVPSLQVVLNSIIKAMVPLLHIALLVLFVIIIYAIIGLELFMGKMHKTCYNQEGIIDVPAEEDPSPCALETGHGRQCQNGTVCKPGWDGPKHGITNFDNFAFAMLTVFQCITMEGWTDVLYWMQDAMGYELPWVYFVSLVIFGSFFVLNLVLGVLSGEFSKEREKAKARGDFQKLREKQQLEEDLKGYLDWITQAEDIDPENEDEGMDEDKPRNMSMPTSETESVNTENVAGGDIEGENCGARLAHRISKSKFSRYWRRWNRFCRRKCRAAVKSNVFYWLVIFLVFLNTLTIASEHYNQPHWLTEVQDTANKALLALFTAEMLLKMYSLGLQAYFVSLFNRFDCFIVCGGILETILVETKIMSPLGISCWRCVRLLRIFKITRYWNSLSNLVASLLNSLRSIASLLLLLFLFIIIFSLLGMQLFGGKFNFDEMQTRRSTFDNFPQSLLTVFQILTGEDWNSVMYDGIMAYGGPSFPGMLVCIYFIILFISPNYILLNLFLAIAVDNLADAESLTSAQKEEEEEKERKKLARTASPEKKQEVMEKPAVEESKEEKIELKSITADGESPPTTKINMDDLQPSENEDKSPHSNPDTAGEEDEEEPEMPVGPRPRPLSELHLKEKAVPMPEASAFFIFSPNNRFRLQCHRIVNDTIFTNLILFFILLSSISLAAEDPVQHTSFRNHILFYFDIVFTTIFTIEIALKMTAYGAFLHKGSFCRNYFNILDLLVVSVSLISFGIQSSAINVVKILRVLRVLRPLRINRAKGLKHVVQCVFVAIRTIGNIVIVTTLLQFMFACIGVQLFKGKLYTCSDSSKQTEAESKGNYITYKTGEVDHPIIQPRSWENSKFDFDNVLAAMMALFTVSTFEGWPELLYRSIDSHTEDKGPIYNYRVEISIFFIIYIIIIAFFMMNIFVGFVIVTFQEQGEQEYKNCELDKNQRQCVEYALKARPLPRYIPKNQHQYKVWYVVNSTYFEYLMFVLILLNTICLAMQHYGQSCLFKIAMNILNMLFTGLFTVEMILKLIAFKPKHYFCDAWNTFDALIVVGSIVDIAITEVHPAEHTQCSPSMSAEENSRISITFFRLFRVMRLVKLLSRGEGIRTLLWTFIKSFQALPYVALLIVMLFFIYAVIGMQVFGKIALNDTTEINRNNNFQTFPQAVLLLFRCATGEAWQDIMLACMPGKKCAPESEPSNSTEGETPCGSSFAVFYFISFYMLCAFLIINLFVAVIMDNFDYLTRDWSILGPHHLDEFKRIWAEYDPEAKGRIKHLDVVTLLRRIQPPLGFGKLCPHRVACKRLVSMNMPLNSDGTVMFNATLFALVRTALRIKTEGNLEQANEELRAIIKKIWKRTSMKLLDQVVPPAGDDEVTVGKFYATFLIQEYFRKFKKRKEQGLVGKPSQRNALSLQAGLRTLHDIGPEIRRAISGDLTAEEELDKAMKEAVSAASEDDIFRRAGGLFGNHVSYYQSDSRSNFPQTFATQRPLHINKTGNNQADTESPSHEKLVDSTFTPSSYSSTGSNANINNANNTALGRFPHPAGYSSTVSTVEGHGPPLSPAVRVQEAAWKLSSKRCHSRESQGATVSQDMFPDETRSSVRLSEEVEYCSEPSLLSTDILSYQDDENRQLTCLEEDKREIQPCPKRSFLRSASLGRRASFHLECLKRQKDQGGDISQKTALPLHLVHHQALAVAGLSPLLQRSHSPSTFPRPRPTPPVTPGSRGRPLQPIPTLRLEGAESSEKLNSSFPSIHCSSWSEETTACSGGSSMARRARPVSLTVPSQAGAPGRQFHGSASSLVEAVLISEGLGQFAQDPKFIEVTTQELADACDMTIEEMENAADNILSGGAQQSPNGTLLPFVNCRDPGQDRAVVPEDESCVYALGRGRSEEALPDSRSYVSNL
T1 sequence (P54290 25-944 partner limits assumed, other chains not shown): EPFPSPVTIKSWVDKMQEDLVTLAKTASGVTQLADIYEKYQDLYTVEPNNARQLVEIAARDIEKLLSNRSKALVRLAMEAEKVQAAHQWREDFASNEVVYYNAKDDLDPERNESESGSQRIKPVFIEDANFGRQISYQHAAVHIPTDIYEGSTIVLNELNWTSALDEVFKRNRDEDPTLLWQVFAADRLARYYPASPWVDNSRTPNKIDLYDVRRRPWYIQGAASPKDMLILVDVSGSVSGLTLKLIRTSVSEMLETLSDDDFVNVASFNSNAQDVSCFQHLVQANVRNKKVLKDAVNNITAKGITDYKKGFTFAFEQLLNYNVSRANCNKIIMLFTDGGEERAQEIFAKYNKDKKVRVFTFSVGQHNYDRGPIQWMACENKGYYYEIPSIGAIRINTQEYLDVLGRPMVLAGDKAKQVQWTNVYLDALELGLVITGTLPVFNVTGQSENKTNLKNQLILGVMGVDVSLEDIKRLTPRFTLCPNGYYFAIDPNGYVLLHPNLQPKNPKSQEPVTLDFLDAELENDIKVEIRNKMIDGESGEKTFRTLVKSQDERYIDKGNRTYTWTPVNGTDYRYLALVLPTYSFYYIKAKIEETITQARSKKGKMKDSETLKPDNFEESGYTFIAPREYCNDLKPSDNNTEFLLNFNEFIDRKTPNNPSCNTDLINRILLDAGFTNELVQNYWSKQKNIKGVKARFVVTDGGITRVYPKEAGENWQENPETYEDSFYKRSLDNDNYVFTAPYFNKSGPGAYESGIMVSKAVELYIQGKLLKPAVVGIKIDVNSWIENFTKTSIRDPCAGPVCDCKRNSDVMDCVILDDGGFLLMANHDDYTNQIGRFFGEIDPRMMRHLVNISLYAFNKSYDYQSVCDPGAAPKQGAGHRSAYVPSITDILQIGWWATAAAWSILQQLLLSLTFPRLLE
T1 sequence (P54290 945-1091 partner limits assumed, other chains not shown): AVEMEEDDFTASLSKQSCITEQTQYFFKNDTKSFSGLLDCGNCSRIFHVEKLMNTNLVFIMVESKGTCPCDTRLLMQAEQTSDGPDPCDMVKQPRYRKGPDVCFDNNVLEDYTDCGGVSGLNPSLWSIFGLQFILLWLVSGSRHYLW
Briefly: [^3 H]-Nitrendipine binding assay (affinity for calcium channels). To be noted: rat cardiac microsomes, 0.5 nM [^3 H]-nitrendipine, 60 minutes at 25°. Here is the method: [^3 H]-Nitrendipine binding assay was carried out according to the method described by G. T. Bolger, et al., Biochem. Biophys. Res. Comm., 104, 1604-1609, 1982 (1). The reaction mixture contained rat cardiac microsomes (source of Ca^2 + channels), 0.5 nM [^3 H]-nitrendipinewith or without potential displacer in Tris buffer. The mixture was incubated for 60 minutes at 25° and subsequently terminated by rapid filtration through a glass fiber-filter. Membrane-bound [^3 H]-nitrendipine trapped in the filter was quantitated by scintillation counting. The inhibitory concentration (IC50) of potential displacer which gives 50% displacement of the total specifically bound [^3 H]-nitrendipine is presented as a measure of the affinity of such compound for the Ca^2 + channel.

Experiment [3] relates to guinea pig left atria. Briefly: Positive inotropic effect in guinea pig left atria. To be noted: 37°; for EC50: left atria paced at 2Hz, cumulative addition to maximum 10^-4, read-out: EC50 (concentration that increases DT by 50% above the control DT); for Intrinsic Activity (ratio of the maximum effect of the test compound to that of Bay K 8644): relative to Bay K 8644, left atria paced at 2Hz. The procedure: Guinea pigs are killed by cervical dislocation. The left atria are removed and mounted at 1 gm resting tension in tissue baths containing oxygenated Krebs bicarbonate solution which is kept at 37°. The left atria are electrically paced at 2Hz with square wave pulses of 1 msec duration. The voltage is set at 1.5× threshold level.
After a one hour equilibration period, control values for developed tension (DT, gm) are recorded. Test compounds are then added to the baths, in a cumulative manner to a maximum concentration of 10^-4, to obtain a concentration-response curve. Treatment values of DT are obtained after the rug effect has reached a plateau and the exposure time for each concentration is 5-8 minutes. Percent change of the treatment value from the control value is calculated at each concentration of the test compound.

Regarding `COc1ccccc1N1CCN(CCCCOC(=O)C2=C(C)NC(C)=C([N+](=O)[O-])C2c2ccccc2C(F)(F)F)CC1` (stereo not drawn) [Example 56], in experiment [1], the IC50 was 0.3 µM. For the same compound, the IC50 in experiment [2] was determined as 0.3 µM. Further, in experiment [3], the EC50 is 6 µM and the “Intrinsic Activity (ratio of the maximum effect of the test compound to that of Bay K 8644)” value is recorded as 100%.
`COC(=O)C1=C(C)NC(C)=C([N+](=O)[O-])C1c1ccccc1OCCN1CCN(c2ccccc2OC)CC1` (stereo not drawn) [Example 58] showed an IC50 in experiment [1] of 0.13 µM. Also, the IC50 in experiment [2] was 0.85 µM. For the same compound, in experiment [3], the EC50 turned out to be 1.9 µM and the “Intrinsic Activity (ratio of the maximum effect of the test compound to that of Bay K 8644)” value came to 90%.
In the same order, the values of `COC(=O)C1=C(C)NC(C)=C([N+](=O)[O-])C1c1ccccc1OCCCCCN1CCN(c2ccccc2OC)CC1` (stereo not drawn) [Example 59, 1,4-dihydro-2,6-dimethyl-4[2-(5-(4-(2-methoxyphenyl)-1-piperazinyl)pentoxyl)-phenyl]-5-nitro-methyl ester-3-pyridinecarboxylic acid] are 0.13 µM, 0.29 µM, 1 µM and 35%.
The like results for `COC(=O)C1=C(C)NC(C)=C([N+](=O)[O-])C1c1ccccc1OCCCCN1CCN(c2ncccn2)CC1` (stereo not drawn) [Example 60, 1,4-dihydro-2,6-dimethyl-'nitro-4-[2-(4-(4-(2-pyrimidinyl)-piperazinyl)butoxy)phenyl]methylester-36pyridinecarboxylic acid] were, in that order, 4.9 µM, 1 µM, 1 µM and 50%.
The like results for `COC(=O)C1=C(C)NC(C)=C([N+](=O)[O-])C1c1ccccc1OCCCCCCCCCCN1CCN(c2ccccc2OC)CC1` (stereo not drawn) [Example 61, 1,4-dihydro-2,6-dimethyl-4[2(10-(4-(2-methoxyphenyl)-piperazinyl)decyloxy)phenyl]-5-nitro-methyl ester-3-pyridinecarboxylic acid] were, in that order, 1.1 µM, 0.067 µM, more than 100 µM and 10%.
For the compound `COC(=O)C1=C(C)NC(C)=C([N+](=O)[O-])C1c1cccc(OCCN2CCN(c3ccccc3OC)CC2)c1` (stereo not drawn) [Example 69], the IC50 is 0.35 µM in experiment [1] and 4.6 µM in experiment [2]. Also, in experiment [3], the EC50 is more than 100 µM. Moreover, the “Intrinsic Activity (ratio of the maximum effect of the test compound to that of Bay K 8644)” value in experiment [3] worked out at 10%.
The like results for `COC(=O)C1=C(C)NC(C)=C([N+](=O)[O-])C1c1cccc(OC)c1OCCN1CCN(c2ccccc2OC)CC1` (stereo not drawn) [Example 87] were, in that order, 0.048 µM, 2.9 µM, more than 100 µM and 0%.
`COC(=O)C1=C(C)NC(C)=C([N+](=O)[O-])C1c1ccccc1OCCCN1CCN(c2ccccc2OC)CC1` (stereo not drawn) [Example 88] returned an IC50 in experiment [1] of 0.26 µM. In addition, the IC50 in experiment [2] came to 4.8 µM. For the same compound, in experiment [3], the EC50 turned out to be 2 µM and the “Intrinsic Activity (ratio of the maximum effect of the test compound to that of Bay K 8644)” value amounted to 50%.
In the same order, the values of `COC(=O)C1=C(C)NC(C)=C([N+](=O)[O-])C1c1cccc(OCCCN2CCN(c3ccccc3OC)CC2)c1` (stereo not drawn) [Example 89] are 0.071 µM, 4 µM, 20 µM and 20%.
As to `COC(=O)C1=C(C)NC(C)=C([N+](=O)[O-])C1c1ccccc1OCCCCN1CCN(c2ccccc2OC)CC1` (stereo not drawn) [Example 105], the IC50 in experiment [1] is 0.18 µM. Besides, in experiment [2], the IC50 came out at 0.22 µM. In addition, in experiment [3], the EC50 was 3 µM and the “Intrinsic Activity (ratio of the maximum effect of the test compound to that of Bay K 8644)” value was determined as 20%.
The like results for `COC(=O)C1=C(C)NC(C)=C([N+](=O)[O-])C1c1cccc(OC)c1OCCCN1CCN(c2ccccc2OC)CC1` (stereo not drawn) [Example 106] were, in that order, 0.14 µM, 0.25 µM, more than 100 µM and 0%.
In turn, `COC(=O)C1=C(C)NC(C)=C([N+](=O)[O-])C1c1cccc(OCCCCN2CCN(c3ccccc3OC)CC2)c1` (stereo not drawn) [Example 107] displayed an IC50 in experiment [1] of 0.41 µM. Further, in experiment [2], the IC50 was determined as 4.1 µM. Also, in experiment [3], the EC50 is more than 100 µM and the “Intrinsic Activity (ratio of the maximum effect of the test compound to that of Bay K 8644)” value is given as 0%.
As to `CCOc1cccc(C2C(C(=O)OC)=C(C)NC(C)=C2[N+](=O)[O-])c1OCCCN1CCN(c2ccccc2OC)CC1` (stereo not drawn) [Example 108], the IC50 in experiment [1] was 1.2 µM. The IC50 in experiment [2] was 0.99 µM. Besides, in experiment [3], the EC50 is more than 100 µM and the “Intrinsic Activity (ratio of the maximum effect of the test compound to that of Bay K 8644)” value was 0%.
The like results for `CCOc1cccc(C2C(C(=O)OC)=C(C)NC(C)=C2[N+](=O)[O-])c1OCCCCN1CCN(c2ccccc2OC)CC1` (stereo not drawn) [Example 109] were, in that order, 0.61 µM, 0.79 µM, more than 100 µM and 0%.
In turn, `COC(=O)C1=C(C)NC(C)=C([N+](=O)[O-])C1c1cccc(OC)c1OCCCCN1CCN(c2ccccc2OC)CC1` (stereo not drawn) [Example 110] returned an IC50 in experiment [1] of 0.16 µM. Moreover, the IC50 in experiment [2] was determined as 1 µM. Further, in experiment [3], the EC50 was more than 100 µM and the “Intrinsic Activity (ratio of the maximum effect of the test compound to that of Bay K 8644)” value worked out at 0%.
In the same order, the values of `COC(=O)C1=C(C)NC(C)=C([N+](=O)[O-])C1c1cccc(OC)c1OCCCCCN1CCN(c2ccccc2OC)CC1` (stereo not drawn) [Example 111] are 0.19 µM, 0.85 µM, more than 100 µM and 0%.
In the same order, the values of `CCOc1cccc(C2C(C(=O)OC)=C(C)NC(C)=C2[N+](=O)[O-])c1OCCCCCN1CCN(c2ccccc2OC)CC1` (stereo not drawn) [Example 112] are 0.18 µM, 1.7 µM, more than 100 µM and 0%.
The like results for `COC(=O)C1=C(C)NC(C)=C([N+](=O)[O-])C1c1cccc(OCCCCCN2CCN(c3ccccc3OC)CC2)c1` (stereo not drawn) [Example 113] were, in that order, 0.57 µM, 3.3 µM, more than 100 µM and 0%.
Turning to `COC(=O)C1=C(C)NC(C)=C([N+](=O)[O-])C1c1cccc(OC)c1OC/C=C\CN1CCN(c2ccccc2OC)CC1` (stereo not drawn) [Example 114], the IC50 in experiment [1] was determined as 0.24 µM. Also, in experiment [2], the IC50 came to 1.6 µM. Also, in experiment [3], the EC50 was more than 100 µM and the “Intrinsic Activity (ratio of the maximum effect of the test compound to that of Bay K 8644)” value was 0%.
As for `COC(=O)C1=C(C)NC(C)=C([N+](=O)[O-])C1c1ccccc1OCCCCN1CCN(c2ccccn2)CC1` (stereo not drawn) [Example 116], the IC50 in experiment [1] was 0.5 µM; in experiment [2] it was 0.58 µM. Also, the EC50 in experiment [3] is more than 100 µM. For the same compound, the “Intrinsic Activity (ratio of the maximum effect of the test compound to that of Bay K 8644)” value in experiment [3] is on record as 0%.
The like results for `CCOC(=O)C1=C(C)NC(C)=C([N+](=O)[O-])C1c1cccc(OCCCN2CCN(c3ccccc3OC)CC2)c1` (stereo not drawn) [Example 117] were, in that order, 0.28 µM, 10 µM, more than 100 µM and 0%.

As usually defined, the IC50 is the concentration that inhibits the measured activity by half.
